The source of these data is US7754767B2, “Method for treatment of premature ejaculation in humans” (Trinity Laboratories, Inc., priority 2002, dated 2010).

“And” between values parts separate entries of the source, which are not always exact repeats. Equal values may be shown once.

Data set [1] can be described thus: Plasma concentrations of DM after oral DM with or without quinidine (HPLC). The following applies: blood sampled 10-12 hours later, per volunteer. It counts as in vivo, human. On the procedure:
Five patients with a symptom of having premature ejaculation were orally administered 120 mg of DM, with no co-administration of quinidine. Between 10 and 12 hours later, blood was sampled, blood plasma was isolated by centrifugation, and the plasma was analyzed to determine the DM concentration using the HPLC method. During a different week, the same patients were orally administered 60 mg of DM (half the control dosage) and 150 mg of quinidine. Between 10 and 12 hours later, blood was sampled and the plasma was analyzed for DM using thebaine/HPLC. The results, in Table 1, indicate that quinidine causes a major increase in the concentration of DM in the blood plasma.

For data set [2], the target named is phosphodiesterase type 5 (PDE5) (Homo sapiens, UniProt O76074). Conditions: in vitro; PDE5 vs PDE6; cited from earlier work.
For data set [3] the following is noted: oral administration, Viagra formulation; cited from earlier work.
The target of the next data set is cyclooxygenase-2 (COX-2) (Homo sapiens, UniProt P35354). The following applies: cited from earlier work.
cyclooxygenase-2 (COX-2), sequence (P35354 18-604, species assumed): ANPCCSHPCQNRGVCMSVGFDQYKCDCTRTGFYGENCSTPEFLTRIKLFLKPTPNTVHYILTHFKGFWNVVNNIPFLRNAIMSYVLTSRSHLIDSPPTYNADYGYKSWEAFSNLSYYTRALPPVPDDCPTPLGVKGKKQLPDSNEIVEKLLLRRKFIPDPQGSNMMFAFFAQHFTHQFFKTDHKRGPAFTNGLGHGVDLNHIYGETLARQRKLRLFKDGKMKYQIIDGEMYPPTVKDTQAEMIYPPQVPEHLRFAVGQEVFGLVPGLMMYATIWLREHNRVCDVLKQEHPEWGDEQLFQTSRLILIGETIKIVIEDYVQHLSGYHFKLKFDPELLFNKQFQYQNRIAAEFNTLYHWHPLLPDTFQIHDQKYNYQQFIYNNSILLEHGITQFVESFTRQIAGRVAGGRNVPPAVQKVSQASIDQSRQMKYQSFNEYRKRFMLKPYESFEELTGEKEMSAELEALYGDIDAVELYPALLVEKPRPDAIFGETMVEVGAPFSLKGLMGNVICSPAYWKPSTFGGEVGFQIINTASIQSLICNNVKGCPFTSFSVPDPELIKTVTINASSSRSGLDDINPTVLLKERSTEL

With `COc1ccc2c(c1)[C@@]13CCCC[C@H]1[C@@H](C2)N(C)CC3` [DM, (+)-3-methoxy-N-methylmorphinan], the “PLASMA CONCENTRATION of DM” value in data set [1] (60 mg DM + 150 mg quinidine oral) was 34.2 ng/mL and 42.4 ng/mL and 30.2 ng/mL and 26.8 ng/mL and 10.2 ng/mL; in data set [1] (120 mg DM oral, quinidine 0 mg), 13.5 ng/mL and 15.4 ng/mL and <1 ng/mL (2×) and 5.7 ng/mL. Take `CCCc1nn(C)c2c(=O)[nH]c(-c3cc(S(=O)(=O)N4CCN(C)CC4)ccc3OCC)nc12` [sildenafil, 1-[[3-(6,7-dihydro-1-methyl-7-oxo-3-propyl-1H-pyrazolo[4,3-d]pyrimidin-5-yl)-4-ethoxyphenyl]sulfonyl]-4-methyl piperazine]: the “potency for PDE5 compared to PDE6” value in data set [2] is listed as “about 10 fold”. Further, the absolute bioavailability result in data set [3] is recorded as “about 40%”.

With `CS(=O)(=O)c1ccc(C2=C(c3ccccc3)C(=O)OC2)cc1` [rofecoxib], on cyclooxygenase-2 (COX-2), the “specificity for inhibiting COX-2 (over COX-1)” value is recorded as “about 350 fold”.
